The text below walks through data of patent US12533353B2, “Methods of treatment of cancer comprising CDC7 inhibitors” (CARNA BIOSCIENCES, INC., priority 2018, dated 2026).

By koff is commonly meant the first-order rate constant of dissociation. Low values mean a long-lived complex, high ones a short-lived complex. By inhibition is commonly meant the drop in the measured response relative to a control, in per cent. The low end stands for a response near the control, the high end for a response far below the control.

Data set [1] deals with Cdc7 (Homo sapiens, UniProt O00311). Put plainly: Rapid dilution studies (residence time, dissociation kinetics). The data set is classed as binding.
Cdc7, sequence (O00311 whole entry): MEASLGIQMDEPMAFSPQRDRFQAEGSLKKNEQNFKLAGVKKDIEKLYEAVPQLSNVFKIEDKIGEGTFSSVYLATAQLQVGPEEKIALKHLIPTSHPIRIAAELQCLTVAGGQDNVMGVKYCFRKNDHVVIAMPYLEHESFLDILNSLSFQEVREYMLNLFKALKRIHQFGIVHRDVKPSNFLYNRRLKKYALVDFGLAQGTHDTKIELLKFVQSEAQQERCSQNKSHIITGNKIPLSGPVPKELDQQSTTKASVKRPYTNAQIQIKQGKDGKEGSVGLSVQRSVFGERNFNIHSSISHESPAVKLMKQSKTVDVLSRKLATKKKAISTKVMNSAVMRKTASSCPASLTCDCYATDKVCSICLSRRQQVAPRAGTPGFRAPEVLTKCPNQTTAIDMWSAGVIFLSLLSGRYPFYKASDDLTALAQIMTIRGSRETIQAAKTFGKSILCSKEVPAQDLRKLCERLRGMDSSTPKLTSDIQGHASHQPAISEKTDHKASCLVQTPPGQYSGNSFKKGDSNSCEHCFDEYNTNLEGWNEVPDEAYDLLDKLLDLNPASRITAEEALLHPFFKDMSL
Cdc7, sequence (Q9UBU7 whole entry partner): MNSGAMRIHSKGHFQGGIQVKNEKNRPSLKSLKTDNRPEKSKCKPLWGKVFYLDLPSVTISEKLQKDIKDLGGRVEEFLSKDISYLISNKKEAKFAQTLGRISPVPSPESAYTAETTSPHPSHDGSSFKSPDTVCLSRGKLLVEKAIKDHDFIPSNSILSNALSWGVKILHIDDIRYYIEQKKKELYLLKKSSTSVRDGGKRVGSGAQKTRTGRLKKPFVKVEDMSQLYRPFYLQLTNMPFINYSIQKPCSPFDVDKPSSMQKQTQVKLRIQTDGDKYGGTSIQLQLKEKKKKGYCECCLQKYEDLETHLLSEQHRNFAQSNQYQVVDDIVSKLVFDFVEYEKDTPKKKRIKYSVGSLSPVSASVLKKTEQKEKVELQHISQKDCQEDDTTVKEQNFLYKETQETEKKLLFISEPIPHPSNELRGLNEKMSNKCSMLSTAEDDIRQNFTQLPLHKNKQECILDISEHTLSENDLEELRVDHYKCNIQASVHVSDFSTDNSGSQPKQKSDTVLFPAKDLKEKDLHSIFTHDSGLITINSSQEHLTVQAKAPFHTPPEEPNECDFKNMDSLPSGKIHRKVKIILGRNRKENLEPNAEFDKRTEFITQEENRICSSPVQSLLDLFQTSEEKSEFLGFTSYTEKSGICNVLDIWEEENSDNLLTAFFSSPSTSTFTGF
The subject of data set [2] is CDK8 (STAT1, Ser727); CDK7 and 9 (RNA pol II, Ser2); LATS2 (YAP1, Ser127); MCL-1. The data set can be described thus: Cellular substrates of putative off-target kinases in Colo-205 cells. The data set is classed as cell-based, human. On the procedure:
Colo-205 cells were treated with SRA141 (at concentrations between 0.033 and 3.3 μM) for 8 to 24 hours with subsequent assessment of the phosphorylation status of the downstream targets for Cdc7 (MCM2, Ser40/41 and Ser53), and the putative off-target kinases CDK8 (STAT1, Ser727); CDK7 and 9 (RNA pol II, Ser2); LATS2 (YAP1, Ser127) as well as the levels of MCL-1, known to be indirectly controlled by CDK9 (Gregory, 2015).

In data set [3] the test system is tumoral phospho-MCM2 (pMCM2). The data set can be described thus: Mouse SW620 colorectal xenograft PK/PD assessment. Format: in vivo. On the procedure: The effect of SRA141 treatment on tumoral phospho-MCM2 (pMCM2), a direct substrate of Cdc7 and downstream marker of Cdc7 inhibition, was determined in mice bearing SW620 xenografts. Changes in pMCM2 were correlated with SRA141 concentrations in tumor and plasma over a 48-hour period following drug administration to construct a rudimentary PK/PD model.
Specifically, female BALB/c mice bearing subcutaneous SW620 tumors were administered single oral doses of SRA141 at 30, 60 or 120 mg/kg (n=15 per group). Control animals were administered vehicle (0.1 M HCl/0.5% MC400; n=10). At 2, 4, 8, 24 and 48 hours following treatment, three animals from each group (n=2 for control) were terminated, and plasma and tumor sampled for analysis.

The target in data set [4] is OAT3 (Homo sapiens, UniProt Q8TCC7). Put plainly: In vitro transporter inhibition. The data set is classed as in vitro ADME.
OAT3, sequence (Q8TCC7 whole entry): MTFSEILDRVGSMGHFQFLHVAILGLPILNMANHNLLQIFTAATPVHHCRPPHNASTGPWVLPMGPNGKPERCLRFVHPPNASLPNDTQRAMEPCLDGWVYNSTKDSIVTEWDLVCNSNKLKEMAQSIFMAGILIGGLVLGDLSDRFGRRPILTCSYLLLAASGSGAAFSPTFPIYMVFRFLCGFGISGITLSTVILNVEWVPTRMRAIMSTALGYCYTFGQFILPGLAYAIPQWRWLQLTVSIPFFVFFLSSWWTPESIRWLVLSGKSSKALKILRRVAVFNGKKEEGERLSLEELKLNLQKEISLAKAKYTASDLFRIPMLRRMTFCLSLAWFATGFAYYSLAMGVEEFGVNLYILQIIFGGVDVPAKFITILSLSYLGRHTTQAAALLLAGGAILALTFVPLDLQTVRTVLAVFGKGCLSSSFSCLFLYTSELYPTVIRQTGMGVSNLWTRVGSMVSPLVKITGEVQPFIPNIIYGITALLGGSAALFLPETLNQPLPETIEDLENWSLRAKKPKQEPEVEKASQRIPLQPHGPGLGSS
Data set [5] relates to MV-4-11 xenograft tumors. The data set can be described thus: MV-4-11 acute myeloid leukemia xenograft, SRA141 monotherapy. The data set is classed as in vivo, mouse. As to conditions: for average tumor volume at day 21: 3 weeks; for tumor growth inhibition: Day 21. How it is done: The efficacy of a Cdc7 inhibitor (compound I-D, also named SRA141) alone as a monotherapy was tested in xenografts using an acute myeloid leukemia cell line, MV-4-11. Female BALB/c mice bearing MV-4-11 xenograft tumors were administered SRA141 at various doses. 60 female BALB/C mice aged 5-6 weeks were subcutaneously inoculated MV-4-11 tumor cells. Mice were inoculated with 5.0×10^6 cells (mixed with Matrigel® at a ratio of 1:1) per mouse. 32 mice were selected and randomized into 4 groups and were orally administered (i) vehicle control (0.2 M HCl/0.5% MC400) or (ii) SRA141 at 30 or 60 mg/kg BID for 3 weeks or (iii) SRA141 120 mg/kg QD for 3 weeks (n=8 per treatment group). The body weights of mice were recorded once per week before grouping and mice conditions were recorded daily during the treatment. After 21 days of dosing, mice were sacrificed for tumor weight measurement. Tumor growth inhibition was calculated on Day 21, the final day of the study.

Data set [6] deals with Colo-205, SW620, SNU-398, NCI-H716, MDA-MB-231, NCI-H1573 and SW1116. The data set can be described thus: Four orthogonal antiproliferative assays (CTG, CTB, CyQuant, Calcein AM). The data set is classed as cell-based. To be noted: 144 h compared with 72 h, all assays and cell lines. The text has this:
The antiproliferative activity of SRA141 was further characterized in seven cell lines (Colo-205, SW620, SNU-398, NCI-H716, MDA-MB-231, NCI-H1573 and SW1116) using four orthogonal assays designed to measure ATP levels (CTG); metabolic activity (CellTiter-Blue (CTB)); DNA content of the cells (CyQuant); and esterase activity (Calcein AM). The relative sensitivities of cell lines within each assay format were generally concordant.

Data set [7] has as its system Colo-205 and SW620 cell populations. The data set can be described thus: High content imaging of cells in mitosis, 48 hours. The data set is classed as cell-based.

As for `CCOC(=O)C1=C(NN2CCN(CC(F)(F)F)CC2)O/C(=C\c2c[nH]c3ncccc23)C1=O` [SRA141], the koff in data set [1] (at 5 nM) was 5.33e-05 s⁻¹. In addition, the residence time in data set [1] (rapid dilution, read-out: residence time t1/2) was found to be 215 min. The “inhibition of STAT1, YAP1 and MCL-1” value in data set [2] (3.3 μM) is “Minimal inhibition”. Further, the “phosphorylation status (or protein level of MCL-1) of off-target substrates” value in data set [2] (up to 1 μM) is reported as “no significant change”. Further, the “time of peak pMCM2 decrease” value in data set [3] (30 mg/kg and 60 mg/kg single doses) is 2-4 hours; in data set [3] (120 mg/kg single dose), 2-8 hours. Further, the Maximal SRA141 plasma concentration in data set [3] (30 mg/kg single oral dose) was approximately 1 µg/mL; in data set [3] (60 mg/kg single oral dose), approximately 1.5 µg/mL. Besides, the “time of maximal plasma concentration after administration” value in data set [3] (30, 60 and 120 mg/kg) was in the range of 2 to 4 h. Further, the “tumoral concentrations relative to plasma” value in data set [3] (30, 60 and 120 mg/kg) is on record as “similar”. For the same compound, the “circulating plasma and intra-tumoral tissue concentration required to inhibit pMCM2 by 50%” value in data set [3] (correlation of PK and PD data) is recorded as “approximately 1.1 μM”. In data set [4], this compound yielded an inhibition at 10 µM of more than 50%. Further, the results for the “average relative body weight change (RCBW) at day 21” value in data set [5] (30 mg/kg BID), in data set [5] (60 mg/kg BID) and in data set [5] (120 mg/kg QD) were 16.39%, 3.18% and 8.47%, respectively. Moreover, the “average tumor volume at day 21” value in data set [5] (30 mg/kg BID oral) is on record as 655.68 mm^3; in data set [5] (60 mg/kg BID oral), 300.77 mm^3; in data set [5] (120 mg/kg QD oral), 530.83 mm^3. Besides, the tumor growth inhibition was 59% in data set [5] (30 mg/kg BID), 81% in data set [5] (60 mg/kg BID) and 67% in data set [5] (120 mg/kg QD). In addition, the tolerability result in data set [5] (all treatments) is “tolerated with no significant body weight loss”. The “potency versus treatment duration” value in data set [6] is listed as “consistent increase of SRA141 potency was observed with a longer treatment duration of 144 h”. In addition, the “percent of cells in mitosis” value in data set [7] was “percent of cells in mitosis is greater in populations treated with SRA141 compared to other Cdc7 inhibitors”.
